Where “and” joins values, the source holds several entries; their conditions need not be identical. Equal entries are not always repeated.
Tests used:
α-glucosidase = α-glucosidase (Saccharomyces cerevisiae, UniProt P53341); type: biochemical
Description: For the example planning initial 1200 μL of phosphate buffer put in test tube and included 100 μl of each concentrate which sequential weakened going from 9, 7, and 5 mg/ml. 200 μl of glycosidase (0.5 mg/11 ml refined H2O) was added to the test tube in addition to 0.2 ml of substrate arrangement (glucopyranoside 15 mg/10 ml refined water) was kept at 37 °C for 20 minutes.
For control, 1.2 ml of PO4 (phosphate buffer) was added to the test tube and furthermore included 200 μl catalyst arrangement and 200 μl of substrate arrangement (C7H14O6 (glucopyranoside) 15 mg/10 ml refined water) just as included 800 μl of Na2CO3 arrangement and was maintained for 20 minutes at 37 °C [32]. The retention of control and test was examined at 4.05e-7 m using the accompanying equation after the recommended time: %Inhibition=absorbanceofControl-absorbanceofSample/absorbanceofControl×100
(§1) The IC50s were determined using the same approach in free radical assays such as DPPH, ABTS, and H2O2.

α-amylase = assay: In-vitro α-amylase inhibition assay; type: biochemical; settings: for Percent Inhibition (mean ± SEM): crude extract/solvent fractions series; for Alpha amylase Percent Inhibition (mean ± SEM): semi-purified fractions/isolated compounds series
Description: The Bernfeld’s procedure was used to investigate in-vitro amylase inhibition. […] Ten minutes after incubation period, […] of 1% starch solution were applied to initiate the reaction and then incubated for 30 minutes at 37 °C. Then 20 μl of 1 M HCl and 75 μl of iodine solution were added to the 96 well plate, the absorbance of the solution was measured at 580 nm and inhibitory response of the -amylase enzyme was calculated using the following formula. Inhibition%=100control-test/control
as §1

DPPH antioxidant assay = type: biochemical; settings: for DPPH Percent Scavenging / Percent Inhibition (mean ± SEM): semi-purified fractions/isolated compounds series
Description: For DPPH stock arrangement, […] dissolve in 100 ml of methanol and maintain at 20 °C for supplementary action. After this, 1000 micro litter was the standard absorbance set at 517 nm as utilized a control and afterward spread through aluminum foil for keeping in dark area for 1 day for the formation of radicals. […] The 2 ml solution of the examples were blended in with 2 ml of 2, 2-[…]-1-picryl-hydrazyl radical arrangement and saved for 15 m in obscurity zone. Following equation was utilized for the assurance of % DPPH restraint. %inhibition=A-B/A×100
A for absorbance of control and B are denoted for the absorbance of sample.
as §1

[1] = ABTS free radicals scavenging assay; type: biochemical
Description: The ABTS analysis of plant’s samples was performed by standard systems. […] After amassing of the two solutions, they were saved in a hatchery at 30 °C for 15 m. The absorbance of the subsequent solution was estimated at 745 nm with photo-spectrometer again. Various weakening of ascorbic corrosive was then set up as certain controls as per a similar technique. The ABTS free extreme screening was examined by the accompanying recipe. Formula: %scavengingactivity=A-B/AX100 A used for the control while B represents sample absorbance.

[2] = H2O2 free radicals scavenging assay; type: biochemical
Description: The hydrogen peroxide antioxidant activity of test samples was evaluated by using protocol described. […] It was […] 0.6 mL hydrogen peroxide solution was applied to it. The absorbance of each plant sample was measured at 230 nm against the blank after 10 minutes. […] Hydrogenperoxidescavengingactivity=1-[…]×100 […]

[3] = system: alloxan-induced diabetic albino mice; assay: In-vivo anti-diabetic study in alloxan-induced diabetic mice; settings: for Decrease in Blood Glucose: 0 day to 15th day
Description: The diabetes was induced in mice by giving alloxan i.p. as per the standard protocols. A single dose of alloxan (150 mg/kg) was given to mice and were kept on fasting for next 16 hours to induce diabetes. […] The animals with random blood glucose level of more than 200 mg/dl were selected for further studies. The animals with elevated blood glucose levels were divided into six groups having five albino mice in each group. Group I was given normal saline and was negative control. Group II was given Tween 80. Group III was the positive control and was given glibenclamide. The remaining groups were given different doses of the compounds. […]

albino mice = assay: Oral glucose tolerance test (OGTT); type: in vivo; settings: for OGTT 0 minutes / OGTT 30 minutes / OGTT 60 minutes / OGTT 120 minutes: oral; for OGTT 0 minutes: 0 minutes after glucose; for OGTT 30 minutes: 30 minutes after glucose; for OGTT 60 minutes: 60 minutes after glucose; for OGTT 120 minutes: 120 minutes after glucose
Description: In this experiment, the animals treated with control and treated groups were fasted overnight. To the albino mice, […] of glucose was administered against the standard glibenclamide. After the oral administration of glucose, the level of glucose in blood was checked at time intervals of 0, 30, 60 and 120 minutes for assessment of the effect of exogenously administered glucose-D on the treated albino mice. After the experiment, the OGTT was carried out for 5 days.

[4] = dose 31.25 μg/kg, diabetic mice
[5] = dose 0.5 (μg/kg), diabetic mice

α-glucosidase, sequence (P53341 whole entry): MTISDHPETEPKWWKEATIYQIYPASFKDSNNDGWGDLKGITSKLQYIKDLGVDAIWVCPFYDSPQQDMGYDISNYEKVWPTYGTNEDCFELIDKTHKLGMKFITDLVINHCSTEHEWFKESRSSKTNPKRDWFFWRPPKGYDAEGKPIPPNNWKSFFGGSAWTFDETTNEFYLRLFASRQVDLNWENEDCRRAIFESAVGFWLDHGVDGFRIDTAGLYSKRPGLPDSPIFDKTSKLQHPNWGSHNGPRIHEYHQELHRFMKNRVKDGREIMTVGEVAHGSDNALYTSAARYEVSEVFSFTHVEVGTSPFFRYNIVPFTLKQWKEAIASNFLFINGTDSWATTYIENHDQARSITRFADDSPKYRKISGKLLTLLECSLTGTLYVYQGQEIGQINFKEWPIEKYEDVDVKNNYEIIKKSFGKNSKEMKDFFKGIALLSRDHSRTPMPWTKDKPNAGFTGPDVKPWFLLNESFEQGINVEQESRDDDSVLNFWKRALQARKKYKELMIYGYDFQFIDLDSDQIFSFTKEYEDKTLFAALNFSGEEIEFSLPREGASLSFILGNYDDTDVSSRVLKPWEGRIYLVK

Row | Structure (SMILES) | Alpha amylase Percent Inhibition (mean ± SEM) (α-amylase; 250 μg/ml) | Alpha amylase Percent Inhibition (mean ± SEM) (α-amylase; 500 μg/ml) | Alpha amylase Percent Inhibition (mean ± SEM) (α-amylase; 1000 μg/ml) | DPPH Percent Scavenging / Percent Inhibition (mean ± SEM) (DPPH antioxidant assay; 250 μg/ml) | DPPH Percent Scavenging / Percent Inhibition (mean ± SEM) (DPPH antioxidant assay; 500 μg/ml) | DPPH Percent Scavenging / Percent Inhibition (mean ± SEM) (DPPH antioxidant assay; 1000 μg/ml) | Decrease in Blood Glucose ([3]; dose 31.25 μg/kg) | Blood Glucose Level 0 day [3, 4] | Blood Glucose Level 4th day [3, 4] | Blood Glucose Level 7th day [3, 4] | Blood Glucose Level 10th day [3, 4] | Blood Glucose Level 15th day [3, 4] | Decrease in Blood Glucose ([3]; dose 250 μg/kg) | Blood Glucose Level 0 day ([3]; dose 250 μg/kg, diabetic mice) | Blood Glucose Level 4th day ([3]; dose 250 μg/kg, diabetic mice) | Blood Glucose Level 7th day ([3]; dose 250 μg/kg, diabetic mice) | OGTT 0 minutes (albino mice) | OGTT 30 minutes (albino mice) | OGTT 60 minutes (albino mice) | OGTT 120 minutes (albino mice) | other results
1 | C[C@H]1O[C@H](O[C@H]2[C@H](O)[C@@H](O)[C@@H](O[C@H]3[C@H](O)[C@@H](O)C(O)O[C@@H]3CO)O[C@@H]2CO)[C@H](O)[C@@H](O)[C@@H]1N[C@H]1C=C(CO)[C@@H](O)[C@H](O)[C@H]1O (stereo partly shown) [Acarbose] | 77.08 ± 1.04% | 82.28 ± 1.94% | 87.49 ± 0.60% |  |  |  |  |  |  |  |  |  |  |  |  |  |  |  |  |  | Alpha glucosidase Percent Inhibition (mean ± SEM) (α-glucosidase): 89.50 ± 1.00% and 83.00 ± 0.00% and 77.50 ± 0.57% and 73.53 ± 0.55% and 67.63 ± 0.33%; Percent Inhibition (mean ± SEM) (α-glucosidase): 75.50 ± 1.00% and 70.00 ± 0.00% and 64.50 ± 0.57% and 56.53 ± 0.55% and 51.63 ± 0.33%; Percent Inhibition (mean ± SEM) (α-amylase; 250 μg/ml): 70.08 ± 1.04%; Percent Inhibition (mean ± SEM) (α-amylase; 500 μg/ml): 76.28 ± 1.94%; Percent Inhibition (mean ± SEM) (α-amylase; 1000 μg/ml): 87.49 ± 0.60%
2 | O=C1O[C@H]([C@@H](O)CO)C(O)=C1O [Ascorbic acid] |  |  |  | 83.33 ± 0.88% | 87.84 ± 0.26% | 92.55 ± 0.35% |  |  |  |  |  |  |  |  |  |  |  |  |  |  | DPPH assay Percent Inhibition (mean ± SEM) (DPPH antioxidant assay; 250 μg/ml, crude extract/solvent fractions series): 81.33 ± 0.88%; DPPH assay Percent Inhibition (mean ± SEM) (DPPH antioxidant assay; 500 μg/ml, crude extract/solvent fractions series): 87.84 ± 0.26%; DPPH assay Percent Inhibition (mean ± SEM) (DPPH antioxidant assay; 1000 μg/ml, crude extract/solvent fractions series): 92.55 ± 0.35%; DPPH assay IC50 (DPPH antioxidant assay; crude extract/solvent fractions series): < 0.1 µg/mL; ABTS assay IC50 [1]: < 0.1 µg/mL; ABTS assay Percent Inhibition (mean ± SEM) ([1]; 250 μg/ml): 81.00 ± 1.06%; ABTS assay Percent Inhibition (mean ± SEM) ([1]; 500 μg/ml): 86.66 ± 0.66%; ABTS assay Percent Inhibition (mean ± SEM) ([1]; 1000 μg/ml): 87.83 ± 0.29%; H2O2 assay IC50 [2]: 12.63 µg/mL; H2O2 assay Percent Inhibition (mean ± SEM) ([2]; 250 μg/ml): 71.56 ± 0.49%; H2O2 assay Percent Inhibition (mean ± SEM) ([2]; 500 μg/ml): 74.03 ± 0.64%; H2O2 assay Percent Inhibition (mean ± SEM) ([2]; 1000 μg/ml): 82.43 ± 0.52%
3 | COc1cc(/C=C/CO)ccc1O [Comp 1, (E)-4-(3-hydroxyprop-1-en-1-yl)-2-methoxyphenol] | 74.90 ± 0.60^ns % | 79.45 ± 0.90^ns % | 85.23 ± 0.22^ns % | 80.48 ± 0.25 % | 85.43 ± 1.39 % | 89.24 ± 0.79 % | 36 mg/dL | 415 mg/dL | 407 mg/dL | 398 mg/dL | 381 mg/dL | 379 mg/dL | 205 mg/dL | 420 mg/dL | 394 mg/dL | 345 mg/dL | 165.6 mg/dL | 194.6 mg/dL | 211.4 mg/dL | 160.1 mg/dL | Blood Glucose Level 10th day ([3]; dose 250 μg/kg, diabetic mice): 217 mg/dL; Blood Glucose Level 15th day ([3]; dose 250 μg/kg, diabetic mice): 215 mg/dL; Decrease in Blood Glucose ([3]; dose 500 μg/kg): 119 mg/dL; Blood Glucose Level 0 day ([3]; dose 500 μg/kg, diabetic mice): 411 mg/dL; Blood Glucose Level 4th day ([3]; dose 500 μg/kg, diabetic mice): 387 mg/dL; Blood Glucose Level 7th day ([3]; dose 500 μg/kg, diabetic mice): 371 mg/dL; Blood Glucose Level 10th day ([3]; dose 500 μg/kg, diabetic mice): 311 mg/dL; Blood Glucose Level 15th day ([3]; dose 500 μg/kg, diabetic mice): 292 mg/dL; blood glucose (albino mice; after 120 minutes): 160 mg/dL
4 | C=CCc1cc2c(c(OC)c1OC)OCO2 [Comp 2, 6-allyl-4,5-dimethoxybenzo[d][1,3]dioxole] | 68.33 ± 0.49 % | 74.33 ± 1.20 % | 81.61 ± 1.70 % | 78.36 ± 0.84 % | 82.35 ± 0.23 % | 87.62 ± 0.58 % | 33 mg/dL | 451 mg/dL | 447 mg/dL | 430 mg/dL | 424 mg/dL | 418 mg/dL | 112 mg/dL | 467 mg/dL | 462 mg/dL | 444 mg/dL | 163.5 mg/dL | 189.4 mg/dL | 214.6 mg/dL | 151.6 mg/dL | Change in body weight [3, 4]: −6.6 gm; Blood Glucose Level 10th day ([3]; dose 250 μg/kg, diabetic mice): 408 mg/dL; Blood Glucose Level 15th day ([3]; dose 250 μg/kg, diabetic mice): 355 mg/dL; Decrease in Blood Glucose ([3]; dose 500 μg/kg): 201 mg/dL; Blood Glucose Level 0 day ([3]; dose 500 μg/kg, diabetic mice): 457 mg/dL; Blood Glucose Level 4th day ([3]; dose 500 μg/kg, diabetic mice): 403 mg/dL; Blood Glucose Level 7th day ([3]; dose 500 μg/kg, diabetic mice): 362 mg/dL; Blood Glucose Level 10th day ([3]; dose 500 μg/kg, diabetic mice): 304 mg/dL; Blood Glucose Level 15th day ([3]; dose 500 μg/kg, diabetic mice): 256 mg/dL
5 | COc1ccc(Cl)cc1C(=O)NCCc1ccc(S(=O)(=O)NC(=O)NC2CCCCC2)cc1 [Glibenclamide, reference compound] |  |  |  |  |  |  |  |  |  |  |  |  |  |  |  |  | 151.3 mg/dL | 176.5 mg/dL | 214.1 mg/dL | 140.7 mg/dL | Decrease in Blood Glucose ([3]; dose 0.5 (μg/kg)): 274 mg/dL; Blood Glucose Level 0 day [3, 5]: 472 mg/dL; Blood Glucose Level 4th day [3, 5]: 302 mg/dL; Blood Glucose Level 7th day [3, 5]: 256 mg/dL; Blood Glucose Level 10th day [3, 5]: 211 mg/dL; Blood Glucose Level 15th day [3, 5]: 198 mg/dL

From publication PMC9190144, “Phytochemistry, anti-diabetic and antioxidant potentials of Allium consanguineum Kunth” (BMC Complementary Medicine and Therapies, 2022)
